Measurements: US20090270379A1, “QUINOLONE DERIVATIVES USEFUL AS ANTIBACTERIAL AGENTS” (priority 2008, published 2009)
In brackets after ≈: the same amount, converted by molar mass.

How the values were obtained:
Type in all cases: cell-based
[1] = tested on: strain C, fluoroquinolone-resistant clinical isolate of Streptococcus pneumoniae; experiment: In vitro antibacterial activity (MIC), microdilution broth method, strain C; conditions: read-out: MIC (μg/mL) C
Description: (§1) Minimal inhibitory concentration (MIC) is an indicator of in vitro antibacterial activity. […] The in vitro antimicrobial activity of representative compounds of the present invention was determined by the microdilution broth method following the test method from the National Committee for Clinical Laboratory Standards (NCCLS). This method is described in the NCCLS Document M7-A4, Vol. 17, No. 2, “Methods for Dilution Antimicrobial Susceptibility Test for Bacteria that Grow Aerobically—Fourth Edition”, which is incorporated herein by reference.
(§2) In this method two-fold serial dilutions of drug in cation adjusted Mueller-Hinton broth were added to wells in microdilution trays. The test organisms were prepared by adjusting the turbidity of actively growing broth cultures so that the final concentration of test organism after it is added to the wells was approximately 5×10^4 CFU/well. Following inoculation of the microdilution trays, the trays were incubated at 35° C. for 16-20 hours and then read. The amount of growth in the wells containing the test compound was compared with the amount of growth in the growth-control wells (no test compound) used in each tray.
(§3) Representative compounds of the present invention were tested against a variety of pathogenic bacteria with results as listed in Table 3, below.

[2] = tested on: Staphylococcus aureus OC4172; experiment: In vitro antibacterial activity (MIC), microdilution broth method, strain A; conditions: cation adjusted Mueller-Hinton broth, 35° C., 16-20 hours
Description: as §1, §2, §3

[3] = tested on: Streptococcus pneumoniae ATCC 49619; experiment: In vitro antibacterial activity (MIC), microdilution broth method, strain E; conditions: ATCC49619, 35° C., 16-20 hours
Description: as §1, §2, §3

[4] = tested on: strain D, fluoroquinolone-resistant clinical isolate of Streptococcus pneumoniae; experiment: In vitro antibacterial activity (MIC), microdilution broth method, strain D; conditions: read-out: MIC (μg/mL) D
Description: as §1, §2, §3

[5] = tested on: strain B, fluoroquinolone-resistant clinical isolate of Streptococcus pneumoniae; experiment: In vitro antibacterial activity (MIC), microdilution broth method, strain B; conditions: read-out: MIC (μg/mL) B
Description: as §1, §2, §3

`C[C@@H]1NCCn2cc(-c3cc4c(cc3F)c(=O)c(C(=O)O)cn4C3CC3)cc21` [Compound 21, 1-Cyclopropyl-6-fluoro-7-(1S-methyl-1,2,3,4-tetrahydro-pyrrolo[1,2-a]pyrazin-7-yl)-4-oxo-1,4-dihydro-quinoline-3-carboxylic acid] showed an MIC [1] of 16 µg/mL (≈ 41.9 µM), an MIC [2] of 0.25 mg/L (≈ 0.655 µM) and an MIC [3] of 1 mg/L (≈ 2.62 µM). It also gave an MIC [4] of 16 µg/mL (≈ 41.9 µM) and an MIC [5] of 4 µg/mL (≈ 10.5 µM).

Molecule `C[C@H]1NCCn2cc(-c3cc4c(cc3F)c(=O)c(C(=O)O)cn4C3CC3)cc21` [Compound 22, 1-Cyclopropyl-6-fluoro-7-(1R-methyl-1,2,3,4-tetrahydro-pyrrolo[1,2-a]pyrazin-7-yl)-4-oxo-1,4-dihydro-quinoline-3-carboxylic acid] has an MIC [1] of 16 µg/mL (≈ 41.9 µM), an MIC [2] of 0.25 mg/L (≈ 0.655 µM) and an MIC [3] of 1 mg/L (≈ 2.62 µM). For the same molecule, the MIC [4] was > 16 µg/mL and the MIC [5] was 4 µg/mL (≈ 10.5 µM).

Molecule `C[C@H]1Cn2cc(-c3c(F)cc4c(=O)c(C(=O)O)cn5c4c3OC[C@@H]5C)cc2CN1` [Compound 23, 8-Fluoro-3S-methyl-9-(3S-methyl-1,2,3,4-tetrahydro-pyrrolo[1,2-a]pyrazin-7-yl)-6-oxo-2,3-dihydro-6H-1-oxa-3a-aza-phenalene-5-carboxylic acid] has an MIC [1] of 8 µg/mL (≈ 20.1 µM), an MIC [2] of 0.25 mg/L (≈ 0.629 µM) and an MIC [3] of 1 mg/L (≈ 2.52 µM). For the same molecule, the MIC [4] was 16 µg/mL (≈ 40.3 µM) and the MIC [5] was 4 µg/mL (≈ 10.1 µM).

`C[C@@H]1NCCn2cc(-c3c(F)cc4c(=O)c(C(=O)O)cn5c4c3OC[C@@H]5C)cc21` [Compound 24, 8-Fluoro-3S-methyl-9-(1S-methyl-1,2,3,4-tetrahydro-pyrrolo[1,2-a]pyrazin-7-yl)-6-oxo-2,3-dihydro-6H-1-oxa-3a-aza-phenalene-5-carboxylic acid] gave an MIC [1] of 8 µg/mL (≈ 20.1 µM), an MIC [2] of 0.25 mg/L (≈ 0.629 µM) and an MIC [3] of 1 mg/L (≈ 2.52 µM). It also gave an MIC [4] of 16 µg/mL (≈ 40.3 µM) and an MIC [5] of 4 µg/mL (≈ 10.1 µM).

For `C[C@H]1Cn2cc(-c3nc4c(cc3F)c(=O)c(C(=O)O)cn4C3CC3)cc2CN1` [Compound 25, 1-Cyclopropyl-6-fluoro-7-(3S-methyl-1,2,3,4-tetrahydro-pyrrolo[1,2-a]pyrazin-7-yl)-4-oxo-1,4-dihydro-[1,8]naphthyridine-3-carboxylic acid], the MIC [1] was 8 µg/mL (≈ 20.9 µM), the MIC [2] was 0.06 mg/L (≈ 0.157 µM) and the MIC [3] was 0.5 mg/L (≈ 1.31 µM). The MIC [4] was 8 µg/mL (≈ 20.9 µM) and the MIC [5] was 2 µg/mL (≈ 5.23 µM).

`C[C@@H]1NCCn2cc(-c3nc4c(cc3F)c(=O)c(C(=O)O)cn4C3CC3)cc21` [Compound 26, 1-Cyclopropyl-6-fluoro-7-(1S-methyl-1,2,3,4-tetrahydro-pyrrolo[1,2-a]pyrazin-7-yl)-4-oxo-1,4-dihydro-[1,8]naphthyridine-3-carboxylic acid] gave an MIC [1] of 8 µg/mL (≈ 20.9 µM), an MIC [2] of 0.5 mg/L (≈ 1.31 µM) and an MIC [3] of 1 mg/L (≈ 2.62 µM). The MIC [4] was 16 µg/mL (≈ 41.8 µM) and the MIC [5] was 8 µg/mL (≈ 20.9 µM).

`C[C@H]1Cn2cc(-c3nc4c(cc3F)c(=O)c(C(=O)O)cn4-c3ccc(F)cc3F)cc2CN1` [Compound 27, 1-(2,4-Difluoro-phenyl)-6-fluoro-7-(3S-methyl-1,2,3,4-tetrahydro-pyrrolo[1,2-a]pyrazin-7-yl)-4-oxo-1,4-dihydro-[1,8]naphthyridine-3-carboxylic acid] gave an MIC [1] of 16 µg/mL (≈ 35.2 µM), an MIC [2] of 0.12 mg/L (≈ 0.264 µM) and an MIC [3] of 1 mg/L (≈ 2.2 µM). For the same molecule, the MIC [4] was > 16 µg/mL and the MIC [5] was 16 µg/mL (≈ 35.2 µM).

With `C[C@@H]1NCCn2cc(-c3nc4c(cc3F)c(=O)c(C(=O)O)cn4-c3ccc(F)cc3F)cc21` [Compound 28, 1-(2,4-Difluoro-phenyl)-6-fluoro-7-(1S-methyl-1,2,3,4-tetrahydro-pyrrolo[1,2-a]pyrazin-7-yl)-4-oxo-1,4-dihydro-[1,8]naphthyridine-3-carboxylic acid] the MIC [1] was > 16 µg/mL, the MIC [2] was 1 mg/L (≈ 2.2 µM) and the MIC [3] was 4 mg/L (≈ 8.8 µM). The MIC [4] was > 16 µg/mL and the MIC [5] was 16 µg/mL (≈ 35.2 µM).

With `C[C@@H]1NCCn2cc(-c3c(F)cc4c(=O)c(C(=O)O)cn(C5CC5)c4c3OC(F)F)cc21` [Compound 29, 1-Cyclopropyl-8-difluoromethoxy-6-fluoro-7-(1S-methyl-1,2,3,4-tetrahydro-pyrrolo[1,2-a]pyrazin-7-yl)-4-oxo-1,4-dihydro-quinoline-3-carboxylic acid] the MIC [1] was 8 µg/mL (≈ 17.9 µM), the MIC [2] was 0.25 mg/L (≈ 0.559 µM) and the MIC [3] was 2 mg/L (≈ 4.47 µM). It also gave an MIC [4] of 16 µg/mL (≈ 35.8 µM) and an MIC [5] of 1 µg/mL (≈ 2.24 µM).
